Data from patent US9828350B2, “5,6-dihydro-2H-[1,4]oxazin-3-yl-amine derivatives useful as inhibitors of beta-secretase (BACE)” (Janssen Pharmaceutica NV, priority 2010, dated 2017).

Tests used:
[1] = tested on: Abeta 1-42; experiment: Cellular αLisa assay in SKNBE2 cells, Abeta 1-42; format: cell-based, human; settings: incubated for 18 hours; for IC50: Homo sapiens, SKNBE2, 18 h, read-out: Cellular αLisa assay in SKNBE2 cells Abeta 42 pIC50 (converted)
Outline: (§1)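 Human neuroblastoma SKNBE2 cells expressing wild-type hAPP695 were incubated with compound for 18 hours. Secreted Abeta total and Abeta 1-42 in medium were quantified by sandwich αLisa: biotinylated AbN/25 on streptavidin donor beads with Ab4G8 (total) or cAb42/26 (1-42) acceptor beads. Light emission read after 1 hour (ex 650 nm, em 615 nm).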

[2] = tested on: Abeta total; experiment: Cellular αLisa assay in SKNBE2 cells, Abeta total; format: cell-based, human; settings: incubated for 18 hours; for IC50: Homo sapiens, SKNBE2, 18 h, read-out: Cellular αLisa assay in SKNBE2 cells Abetatotal pIC50 (converted)
Outline: as §1

[3] = target: recombinant BACE1 protein (Homo sapiens, UniProt P56817); experiment: Biochemical FRET based assay; settings: recombinant BACE1 1 μg/ml, 120 minutes at room temperature, pH 5.0; for IC50: read-out: Biochemical FRET based assay pIC50 (converted)
Outline: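 Recombinant BACE1 (1 μg/ml final) was incubated 120 minutes at room temperature with […] Mca/Dnp-labelled 13-mer APP Swedish-mutant peptide in 40 mM citrate pH 5.0, 0.04% PEG, 4% DMSO, with or without compound. Cleavage was measured as fluorescence (ex 320/em 405 nm), given as RFU difference between T120 and T0.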

Sequence of recombinant BACE1 protein (P56817 46-501): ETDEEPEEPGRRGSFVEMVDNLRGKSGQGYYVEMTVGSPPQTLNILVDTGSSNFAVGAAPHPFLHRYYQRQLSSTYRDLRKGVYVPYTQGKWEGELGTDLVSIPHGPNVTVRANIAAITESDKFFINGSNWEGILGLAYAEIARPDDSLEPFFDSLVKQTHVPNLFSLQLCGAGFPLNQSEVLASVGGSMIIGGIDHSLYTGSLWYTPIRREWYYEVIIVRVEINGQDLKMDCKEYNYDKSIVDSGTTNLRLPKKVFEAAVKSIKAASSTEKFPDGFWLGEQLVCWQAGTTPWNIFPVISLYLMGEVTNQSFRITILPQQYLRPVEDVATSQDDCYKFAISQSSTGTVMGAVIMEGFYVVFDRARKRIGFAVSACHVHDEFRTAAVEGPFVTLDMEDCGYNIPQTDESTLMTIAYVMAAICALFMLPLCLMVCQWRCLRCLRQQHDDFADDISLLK

SMILES | IC50 [1] | IC50 [2] | IC50 [3] | Cellular αLisa assay in SKNBE2 cells Abeta 42 pIC50 [1] | Cellular αLisa assay in SKNBE2 cells Abetatotal pIC50 [2] | Biochemical FRET based assay pIC50 [3]
Cc1cc(Cl)cnc1C(=O)Nc1cccc([C@@]2(C3CC3)N=C(N)CO[C@H]2F)c1 [Compound 298] | 0.0617 µM | 0.0589 µM | 0.123 µM |  |  | 
COc1cccc(-c2cc([C@]3(C)COCC(N)=N3)c(F)cc2F)n1.Cl [Compound 145] |  |  |  | 5.45 | 5.55 | 4.67
CC1(c2cc(NC(=O)c3ccc(Cl)cc3F)ccc2F)COCC(N)=N1.Cl (stereo not drawn) [Compound 27] |  |  |  | 7.06 | 7.04 | 6.35
NC1=N[C@@](c2cc(NC(=O)c3ncc(Cl)cc3F)ccc2F)(C2CC2)[C@H](F)OC1 [Compound 220] | 0.355 µM | 0.347 µM | 0.468 µM |  |  | 
COc1cnc(C(=O)Nc2cccc(C3(C)N=C(N)COC3(F)C(F)(F)F)c2)cn1 (single isomer, unassigned) [Compound 179] |  |  | > 30.2 µM | <5 | <5 | 
NC1=N[C@@](c2cc(-c3cncnc3)ccc2F)(C2CC2)[C@](F)(C(F)(F)F)OC1 [Compound 312] | 3.24 µM | 2.82 µM | 0.661 µM |  |  | 
CC1(c2cc(-c3cccc(C#N)c3)c(F)cc2F)COCC(N)=N1 (stereo not drawn) [Compound 32] |  |  |  | 6.2 | 6.25 | 4.87
CC1(c2cccc(-c3cncc(C#N)c3)c2)N=C(N)COC1C(F)(F)F (single isomer, unassigned) [Compound 205] |  |  | 15.8 µM | 5.55 | 5.47 | 
C[C@H]1OC[C@](C)(c2cccc(NC(=O)c3ccc(Cl)cn3)c2)N=C1N (racemic) [Compound 20, trans-rac-N-[3-(5-Amino-3,6-dimethyl-3,6-dihydro-2H-1,4-oxazin-3-yl)phenyl]-5-chloropyridine-2-carboxamide] |  |  |  | 7.81 | 7.86 | 6.78
Cc1ccc(C(=O)Nc2cccc(C3(C)N=C(N)COC3(F)C(F)(F)F)c2)nc1 (single isomer, unassigned) [Compound 191] |  |  | 18.6 µM | 5.04 | 5.46 | 
CC1(c2cc(-c3cccc(C(F)(F)F)c3)c(F)cc2F)COCC(N)=N1 (stereo not drawn) [Compound 31] |  |  |  | 5.76 | 5.86 | 4.76
N#Cc1ccc(C(=O)Nc2cccc([C@@]3(C4CC4)N=C(N)CO[C@H]3F)c2)nc1 [Compound 280] | 0.0589 µM | 0.0575 µM | 0.182 µM |  |  | 
CC1(c2cccc(NC(=O)c3ncc(Cl)cc3F)c2)N=C(N)COC1F (single isomer, unassigned) [Compound 163] |  |  | 0.0407 µM | 8.01 | 8.05 | 
CC1(c2cccc(-c3cncc(C#N)c3)c2)N=C(N)COC1C(F)(F)F (single isomer, unassigned) [Compound 207] |  |  | 3.47 µM | 6.33 | 6.24 | 
CC1(c2cccc(NC(=O)c3ccc(Cl)cn3)c2)N=C(N)COC1F (single isomer, unassigned) [Compound 90] |  |  |  | 7.76 | 7.76 | 6.37
CC1(c2cc(-c3cncc(C#N)c3)ccc2F)N=C(N)COC1C(F)(F)F (single isomer, unassigned) [Compound 266] |  |  | > 30.2 µM | <5 | ~5 | 
CC1(c2cc(NC(=O)c3ncc(Cl)cc3F)ccc2F)N=C(N)COC1F (single isomer, unassigned) [Compound 133] |  |  | 0.0257 µM | 8.18 | 8.21 | 
C[C@@]1(c2cccc(-c3cccc(C#N)c3)c2)COCC(N)=N1 [Compound 51] |  |  |  | 6.61 | 6.59 | 5.41
CC1(c2cc(-c3cncnc3)ccc2F)N=C(N)COC1C(F)(F)F (single isomer, unassigned) [Compound 238] |  |  | 0.832 µM | 6.65 | 6.66 | 
CC1(c2cc(NC(=O)c3ccc(F)cn3)ccc2F)COCC(N)=N1 (stereo not drawn) [Compound 25] |  |  |  | 7.93 | 7.9 | 6.93

SMILES | IC50 [1] | IC50 [2] | IC50 [3] | Cellular αLisa assay in SKNBE2 cells Abeta 42 pIC50 [1] | Cellular αLisa assay in SKNBE2 cells Abetatotal pIC50 [2] | Biochemical FRET based assay pIC50 [3]
CC1(c2cc(NC(=O)c3ccc(Cl)s3)ccc2F)COCC(N)=N1 (stereo not drawn) [Compound 29] |  |  |  | 6.67 | 6.67 | 6.11
CC1(c2cc(NC(=O)c3cnc(C(F)(F)F)cn3)ccc2F)COCC(N)=N1 (stereo not drawn) [Compound 22] |  |  |  | 7.59 | 7.663 | 6.7
C[C@@]1(c2cc(NC(=O)c3ccc(C(F)(F)F)cn3)ccc2F)COCC(N)=N1 [Compound 38] |  |  |  | 8.39 | 8.35 | 6.91
COc1cncc(-c2cccc(C3(C)N=C(N)COC3C(F)(F)F)c2)c1 (stereo not drawn) [Compound 108] | 0.12 µM | 0.12 µM | 1.29 µM |  |  | 
CC1(c2cccc(-c3cncc(C#N)c3)c2)N=C(N)COC1C(F)(F)F (single isomer, unassigned) [Compound 206] |  |  | > 30.2 µM | <5 | <5 | 
C[C@]1(c2cc(-c3cncnc3)c(F)cc2F)COCC(N)=N1 [Compound 155] |  |  |  | <5 | <5 | <4.52
COc1cncc(-c2cccc(C3(C)N=C(N)COC3C(F)(F)F)c2)c1 (single isomer, unassigned) [Compound 102] |  |  | > 30.2 µM | <5 | <5 | 
CC1(c2cc(-c3cncnc3)ccc2F)COCC(N)=N1 (single isomer, unassigned) [Compound 54] |  |  |  | 6.68 | 6.65 | 5.41
COc1cnc(C(=O)Nc2cccc(C3(C)N=C(N)COC3F)c2)cn1 (single isomer, unassigned) [Compound 131] |  |  | 0.0355 µM | 7.54 | 7.52 | 
NC1=N[C@@](c2cccc(NC(=O)c3cnc(OCC(F)(F)F)cn3)c2)(C2CC2)[C@@H](F)OC1 [Compound 275] | 0.0589 µM | 0.0562 µM | 0.0617 µM |  |  | 
CC1(c2cccc(NC(=O)c3ccc(Cl)cn3)c2)COC(F)(C(F)(F)F)C(N)=N1 (single isomer, unassigned) [Compound 157] |  |  |  | <5 | <5 | <4.52
C[C@]1(c2cc(-c3cncc(C#N)c3)c(F)cc2F)N=C(N)CO[C@H]1C(F)(F)F [Compound 351] | 0.55 µM | 0.468 µM | 2.04 µM |  |  | 
NC1=N[C@@](c2cccc(NC(=O)c3ncc(Cl)cc3F)c2)(C2CC2)[C@H](C(F)(F)F)OC1 [Compound 288] | 0.00776 µM | 0.00741 µM | 0.0331 µM |  |  | 
CCC1(c2cc(-c3cncnc3)ccc2F)N=C(N)COC1(F)C(F)(F)F (stereo not drawn) [Compound 302] |  |  | > 30.2 µM | <5 | <5 | 
COc1cnc(C(=O)Nc2ccc(F)c([C@@]3(C)N=C(N)CO[C@@]3(F)C(F)(F)F)c2)cn1 [Compound 180] | 0.0339 µM | 0.0282 µM | 0.0447 µM |  |  | 
C[C@]1(c2cc(NC(=O)c3cnc(OCC(F)(F)F)cn3)ccc2F)N=C(N)CO[C@@]1(F)C(F)(F)F [Compound 319] | 0.0741 µM | 0.0692 µM | 0.0437 µM |  |  | 
C[C@]1(c2cc(NC(=O)c3ncc(C#N)cc3Cl)ccc2F)N=C(N)CO[C@@]1(F)C(F)(F)F [Compound 307] | 0.107 µM | 0.0933 µM | 0.2 µM |  |  | 
COc1cnc(C(=O)Nc2cccc(C3(C)N=C(N)COC3(F)C(F)(F)F)c2)cn1 (single isomer, unassigned) [Compound 177] |  |  | 0.0251 µM | 7.83 | 7.84 | 
CC1(c2cccc(NC(=O)c3cnc(C(F)(F)F)cn3)c2)COCC(N)=N1 (stereo not drawn) [Compound 146] |  |  |  | 7.07 | 7.03 | 6.26
C[C@@]1(c2cc(-c3cc(F)cc(F)c3)c(F)cc2F)COCC(N)=N1 [Compound 37] |  |  |  | 6.77 | 6.79 | 5.45
